Literature values as cited in patent US20210290432A1, “KIT FOR PRODUCING KERATOCONJUNCTIVAL COVER SHEET AND METHOD FOR PRODUCING KERATOCONJUNCTIVAL COVER SHEET” (OSAKA UNIVERSITY, priority 2016, published 2021).

SMILES: O=C(NC(Cc1cc(=O)[nH]c2ccccc12)C(=O)O)c1ccc(Cl)cc1 (stereo not shown) [Rebamipide, rebamipide]
- solubility in water: poorly soluble in water
